Drawing on ChEMBL document CHEMBL1151185, “Isolation and structure elucidation of a novel antimalarial macrocyclic polylactone, menisporopsin A, from the fungus Menisporopsis theobromae” (J Nat Prod, 2004), this text covers MIC, IC50 and Activity for two compounds.

For assay [1], the system named is Mycobacterium tuberculosis. Nature of the assay: Antimycobacterial activity against Mycobacterium tuberculosis H37Ra by microplate alamar blue assay. In kind it is functional.
Assay [2] in a line: Cytotoxicity against human BC1 cells by colorimetric method. In kind it is functional, cell-based.
For another assay, the system named is KB. The assay can be described thus: Cytotoxicity against human KB cells by colorimetric method. It counts as functional, cell-based.
For assay [3], the system named is Plasmodium falciparum. Nature of the assay: Antimalarial activity against multidrug-resistant Plasmodium falciparum K1 by [3H]hypoxanthine uptake. In kind it is functional, organism-based.
For the next assay, the system named is Candida albicans. Nature of the assay: Antimicrobial activity against Candida albicans at 20ug/mL. It counts as functional, organism-based.
A further assay relates to BC1. The assay can be described thus: Cytotoxicity against human BC1 cells at 20 ug/mL by colorimetric method. In kind it is functional, cell-based.
The subject of assay [4] is Plasmodium falciparum. The assay can be described thus: Antimalarial activity against multidrug-resistant Plasmodium falciparum K1 at 20 ug/mL as reduced [3H]hypoxanthine uptake. In kind it is functional, organism-based.

Each structure is given as a SMILES string. Values after ≈ are worked out from the molar mass of the structure shown. Active and inactive are the calls of the source. The rule behind the calls is not given here.

For `C[C@@H]1Cc2cc(O)cc(O)c2C(=O)O[C@H](C)CC(=O)O[C@H](C)Cc2cc(O)cc(O)c2C(=O)O[C@H](C)C[C@@H](O)Cc2cc(O)cc(O)c2C(=O)O[C@H](C)CC(=O)O1` [MENISPOROPSIN A], the MIC in assay [1] is 50 µg/mL (≈ 62.6 µM). In addition, the half-maximal inhibitory concentration (IC50) in assay [2] came to 5 µg/mL (≈ 6.26 µM); in the assay on KB, 6 µg/mL (≈ 7.51 µM); in the assay on Plasmodium falciparum [3], 4 µg/mL (≈ 5.01 µM). Further, the outcome in the assay with Candida albicans was inactive.

For `COc1cc2c(c(OC)c1)C(=O)O[C@H](C)CC(=O)O[C@H](C)Cc1cc(OC)cc(OC)c1C(=O)O[C@H](C)CC(=O)O[C@H](C)Cc1cc(OC)cc(OC)c1C(=O)O[C@H](C)C[C@@H](O)C2`, the result in the assay with Candida albicans, in the assay on BC1 and with Plasmodium falciparum [4] was inactive.
